Reference: patent US20140308675A1, “MUTAGENICITY TEST METHOD USING MAMMALIAN CELLS” (NISSIN FOODS HOLDINGS CO., LTD., priority 2011, published 2014)
Entries after “also recorded” stand apart in the source; their conditions may differ.

Experiments:
[1] = tested on: TK6 cells transfected with pGL4-p53R2×3-SV40-Luc2; experiment: Mutagenicity test: luciferase reporter, transient pGL4-p53R2×3-SV40-Luc2 transformant; assay type: cell-based, human; settings: 0.003-0.7 μg/mL
Protocol: Wild-type p53 of a human lymphoblast cell line TK6 cell was confirmed to be normal by DNA sequencing (ABI Prism BigDye Terminater v3.0; manufactured by Applied Biosystems) using primers for sequencing 5′-ACACGCTTCCCTGGATTG-3′ (SEQ ID NO: 17) and 5′-[…]-3′ (SEQ ID NO: 18).
It should be noted that the amount of pGL4-p53R2×3-SV40-Luc2 for transfection was adjusted to 0.25 ng/well.
Next, after the removal of the medium, a cell lysis solution (manufactured by Promega) was added at 25 μl/well, and the whole was left to stand at room temperature for 15 minutes. The plate was set in a luminometer LB96P with an enzyme substrate automatic injector (manufactured by Berthold), and a substrate solution (manufactured by Promega) was automatically dispensed at 30 μL/well to measure luciferase activities.
Wild-type p53 of a human lymphoblast cell line TK6 was confirmed to be normal in the same manner as described above. […] It should be noted that the amount of pGL4-p53R2×3-SV40-Luc2 for transfection was adjusted to 0.25 ng/well.

[2] = tested on: TK6 cells transfected with PGV-p53R2×3-Luc; experiment: Mutagenicity test: luciferase reporter, transient PGV-p53R2×3-Luc transformant; assay type: cell-based, human; settings: TK6, PGV-p53R2×3-Luc
Protocol: Next, the same operation as described above was performed to measure luciferase activities except that the plasmid PGV-p53R2×3-Luc prepared in Example 1 of JP 4243716 B2 was used in place of pGL4-p53R2×3-SV40-Luc2.
(§1) Transfection with plasmid PGV-p53R2×3-Luc, culture, and luciferase activity measurement were performed in the same manner as in Reference Example 1 described above except that the transformant was cultured for the following culture time: 16 hours in TK6 cells; 24 hours in MCF-7, HepG2, A549, HCT116, and HEK293; and 18 hours in NB1RGB.

[3] = tested on: MCF-7 cells transfected with pGL4-p53R2×3-SV40-Luc2; experiment: Luciferase reporter, pGL4-p53R2×3-SV40-Luc2 transformant of MCF-7; assay type: cell-based, human; settings: MCF-7, pGL4-p53R2×3-SV40-Luc2; 8 hours after contact; FIG. 4
Excerpt: (§2) The obtained various transformants of the MCF-7 cells, the HepG2 cells, the A549 cells, the HCT116 cells, the HEK293 cells, and the NB1RGB cells were used to measure luciferase activities in the same manner as in the TK6 cells.

[4] = tested on: HepG2 cells transfected with pGL4-p53R2×3-SV40-Luc2; experiment: Luciferase reporter, pGL4-p53R2×3-SV40-Luc2 transformant of HepG2; assay type: cell-based, human; settings: HepG2, pGL4-p53R2×3-SV40-Luc2; 8 hours after contact; FIG. 4
Excerpt: as §2

[5] = tested on: A549 cells transfected with pGL4-p53R2×3-SV40-Luc2; experiment: Luciferase reporter, pGL4-p53R2×3-SV40-Luc2 transformant of A549; assay type: cell-based, human; settings: A549, pGL4-p53R2×3-SV40-Luc2; 8 hours after contact; FIG. 4
Excerpt: as §2

[6] = tested on: HCT116 cells transfected with pGL4-p53R2×3-SV40-Luc2; experiment: Luciferase reporter, pGL4-p53R2×3-SV40-Luc2 transformant of HCT116; assay type: cell-based, human; settings: HCT116, pGL4-p53R2×3-SV40-Luc2; 8 hours after contact; FIG. 4
Excerpt: as §2

[7] = tested on: HEK293 cells transfected with pGL4-p53R2×3-SV40-Luc2; experiment: Luciferase reporter, pGL4-p53R2×3-SV40-Luc2 transformant of HEK293; assay type: cell-based, human; settings: HEK293, pGL4-p53R2×3-SV40-Luc2; 8 hours after contact; FIG. 4
Excerpt: as §2

[8] = tested on: NB1RGB cells transfected with pGL4-p53R2×3-SV40-Luc2; experiment: Luciferase reporter, pGL4-p53R2×3-SV40-Luc2 transformant of NB1RGB; assay type: cell-based, human; settings: 8 hours after contact, FIG. 4
Excerpt: as §2

[9] = tested on: MCF-7 cells transfected with PGV-p53R2×3-Luc; experiment: Luciferase reporter, PGV-p53R2×3-Luc transformant of MCF-7; assay type: cell-based, human; settings: MCF-7, PGV-p53R2×3-Luc
Protocol: (§3) To the obtained various transformants of MCF-7, HepG2, A549, HCT116, HEK293, and NB1RGB, adriamycin dissolved in DMSO was added, followed by culture for 8 hours. After that, luciferase activities were measured in the same manner as in the TK6 cells.
as §1

[10] = tested on: HepG2 cells transfected with PGV-p53R2×3-Luc; experiment: Luciferase reporter, PGV-p53R2×3-Luc transformant of HepG2; assay type: cell-based, human; settings: HepG2, PGV-p53R2×3-Luc
Protocol: as §3, §1

[11] = tested on: A549 cells transfected with PGV-p53R2×3-Luc; experiment: Luciferase reporter, PGV-p53R2×3-Luc transformant of A549; assay type: cell-based, human; settings: A549, PGV-p53R2×3-Luc
Protocol: as §3, §1

[12] = tested on: HCT116 cells transfected with PGV-p53R2×3-Luc; experiment: Luciferase reporter, PGV-p53R2×3-Luc transformant of HCT116; assay type: cell-based, human; settings: HCT116, PGV-p53R2×3-Luc
Protocol: as §3, §1

[13] = tested on: HEK293 cells transfected with PGV-p53R2×3-Luc; experiment: Luciferase reporter, PGV-p53R2×3-Luc transformant of HEK293; assay type: cell-based, human; settings: HEK293, PGV-p53R2×3-Luc
Protocol: as §3, §1

[14] = tested on: NB1RGB cells transfected with PGV-p53R2×3-Luc; experiment: Luciferase reporter, PGV-p53R2×3-Luc transformant of NB1RGB; assay type: cell-based, human
Protocol: as §3, §1

[15] = tested on: stable expression cells TK6/p53R2×3-Luc2P; experiment: Mutagenicity test: luciferase reporter, stable expression cells TK6/p53R2×3-Luc2P
[16] = tested on: cells TK6/p53R2×3-Luc2P/Rluc; experiment: Mutagenicity test with internal control, cells TK6/p53R2×3-Luc2P/Rluc; assay type: cell-based, human; settings: 0.1-20 μg/mL; 6 hours; FIG. 11
Protocol: Next, in accordance with the method of Example 8, cells stably expressing Luc2P and Rluc were acquired and named TK6/p53R2×3-Luc2P/Rluc.
Next, the above-mentioned two kinds of cells were brought into contact with 5-aza-2′-deoxycytidine (5-aza-dC).
After the removal of the medium, the expression amount of the Luc2P gene was determined as a relative value to the expression amount of the Rluc gene. Specifically, through the use of a luminometer LB96P with an enzyme substrate automatic injector (manufactured by Berthold), first, a substrate solution for firefly luciferase measurement (manufactured by Promega) was dispensed at 30 μL/well to measure the expression amount of the Luc2P gene. After that, a substrate solution for Sea pansy luciferase measurement (manufactured by Promega) was further dispensed at 30 μL/well to determine the expression amount of the Rluc gene.

COc1cccc2c1C(=O)c1c(O)c3c(c(O)c1C2=O)C[C@@](O)(C(=O)CO)C[C@@H]3O[C@H]1C[C@H](N)[C@H](O)[C@H](C)O1 [adriamycin]
Luciferase activity (% of Solvent control) ([1]; contact for 4 hours): such an increase in luciferase activity due to an increase in concentration of adriamycin as to be sufficient for performing a mutagenicity test | Luciferase activity (% of Solvent control) ([1]; contact for 8 hours): very high luciferase activity | Luciferase activity (% of Solvent control) ([1]; dependence on concentration, FIG. 3): an increase in luciferase activity due to an increase in concentration of adriamycin | Luciferase activity (% of Solvent control) ([2]; 0.003-0.7 μg/mL, contact for 8 hours): very small luciferase activity; also recorded: only a slight increase in luciferase activity | Luciferase activity (% of Solvent control) ([2]; culture 16 hours, FIG. 6): high luciferase activity | Luciferase activity (% of Solvent control) [3]: only slight luciferase activity | Luciferase activity (% of Solvent control) [4]: only slight luciferase activity | Luciferase activity (% of Solvent control) [5]: only slight luciferase activity | Luciferase activity (% of Solvent control) [6]: only slight luciferase activity | Luciferase activity (% of Solvent control) [7]: only slight luciferase activity | Luciferase activity (% of Solvent control) [8]: only slight luciferase activity | Luciferase activity (% of Solvent control) ([9]; contact for 8 hours, FIG. 5): only a slight increase in luciferase activity | Luciferase activity (% of Solvent control) ([9]; culture 24 hours, FIG. 6): high luciferase activity | Luciferase activity compared with the other cells ([9]; culture 24 hours, FIG. 6): higher luciferase activities | Luciferase activity (% of Solvent control) ([10]; contact for 8 hours, FIG. 5): only a slight increase in luciferase activity | Luciferase activity (% of Solvent control) ([10]; culture 24 hours, FIG. 6): high luciferase activity | Luciferase activity compared with the other cells ([10]; culture 24 hours, FIG. 6): higher luciferase activities | Luciferase activity (% of Solvent control) ([11]; contact for 8 hours, FIG. 5): only a slight increase in luciferase activity | Luciferase activity (% of Solvent control) ([11]; culture 24 hours, FIG. 6): high luciferase activity | Luciferase activity (% of Solvent control) ([12]; contact for 8 hours, FIG. 5): only a slight increase in luciferase activity | Luciferase activity (% of Solvent control) ([12]; culture 24 hours, FIG. 6): high luciferase activity | Luciferase activity (% of Solvent control) ([13]; contact for 8 hours, FIG. 5): only a slight increase in luciferase activity | Luciferase activity (% of Solvent control) ([13]; culture 24 hours, FIG. 6): high luciferase activity | Luciferase activity (% of Solvent control) ([14]; contact for 8 hours, FIG. 5): only a slight increase in luciferase activity | Luciferase activity (% of Solvent control) ([14]; culture 18 hours, FIG. 6): high luciferase activity | Luciferase activity (% of Solvent control), time-dependent change ([15]; 0.2 μg/mL, 2, 4, 6 and 8 hours, FIG. 9): an increase in luciferase activity due to an increase in concentration of adriamycin | Luciferase activity (% of Solvent control) ([15]; 0.003-0.7 μg/mL, 6 hours, FIG. 10): an increase in luciferase activity due to an increase in concentration of adriamycin

Nc1ncn([C@H]2C[C@H](O)[C@@H](CO)O2)c(=O)n1 [5-aza-dC, 5-aza-2′-deoxycytidine]
Firefly luciferase (Luc2P) activity not corrected with Rluc activity (w/o internal control) [16]: an increase in measured value due to an increase in concentration of 5-aza-dC | Luc2P activity corrected with Rluc activity as an internal control (with internal control) [16]: no increase in measured value
